Test results taken from patent US9387186B2, “Thiourea derivatives” (priority 2014, dated 2016).
Like-named read-outs stand apart in the source and are kept apart here.

Columns and labels:
Format in all cases: cell-based, Staphylococcus aureus
[1] = test system: MRSA 252; assay: High throughput screening assay (MABA) against MDR S. aureus; settings: for activity in MABA (in words): summary of Table 1
Protocol: (§1) In growth medium (Muller Hinton broth), the pure isolated colonies were inoculated and incubated at 37° C. for 20-24 hours. After 20-24 hours, the turbidity was checked and adjusted to 0.5 McFarland standards.
(§2) For this assay, the stock solutions of 1 mg/mL concentration of compounds (I and II) were made by using DMSO. 96-Wells sterile, flat bottom micro titer plates were used with proper labeling, 20 μg/mL of both compounds were added in first wells and made two fold serial dilutions by using sterile broth. The cells suspensions (conc. 5×10^5) were then added in each wells, finally the volume was made up with broth up to 200 μL in each well. The plate was sealed and incubated at 37° C. for 20-24 hours. Experiments were carried out in triplicate manner. After incubation of 20-24 hours, Alamar Blue Dye was added (10%) to the culture volume and kept the plates on shaking incubator at 37° C. for 3 to 4 hours. Change in color was then assessed visually and qualitatively. Quantitative analysis was recorded by taking absorbance at 570 and 600 nm by a spectrophotometer.
(§3) The above mentioned protocol was followed by the method reported by Sarkar et al., (2007) with slight modifications.
(§4) Percentage reduction and inhibition of Alamar blue dye was calculated by using the following formulas:
(§5) [formula] Where, • εox=molar extinction coefficient of Alamar blue oxidized form (blue) • εred=molar extinction coefficient of Alamar blue reduced form (pink) • A=absorbance of test wells • A′=absorbance of negative control well • λ1=570 nm • λ2=600 nm
(§6) Here control wells contain only media plus Alamar Blue, while the test wells contain both Alamar Blue with the test compounds.
(§7) [formula] Where, • εox=molar extinction coefficient of Alamar blue oxidized form (blue) • A=absorbance of test wells • A°=absorbance of positive growth control well • λ1=570 nm • λ2=600 nm
(§8) Here control wells contain cells+media+Alamar Blue, while the test wells contain both Alamar Blue with the test compounds+cells (The percent inhibitions are available in Table 1).

[2] = test system: Clinical Isolates; assay: as above; settings: for activity in MABA (in words): summary of Table 1
Protocol: as §1, §2, §3, §4, §5, §6, §7, §8

[3] = test system: EMRSA-17; assay: as above; settings: for activity in MABA (in words): summary of Table 1
Protocol: as §1, §2, §3, §4, §5, §6, §7, §8

[4] = test system: EMRSA-16; assay: as above; settings: for activity in MABA (in words): summary of Table 1
Protocol: as §1, §2, §3, §4, §5, §6, §7, §8

[5] = test system: EMRSA-16 and -17; assay: Reactive oxygen species (O2-) production, lucigenin CL assay; settings: 25, 50 and 100 μg/mL; lucigenin chemiluminescence
Protocol: Assay Protocol: 5×10^5 Cells were incubated with the different concentrations of compounds (25, 50 and 100. μg/mL), leucigenin and filtered phosphate buffer saline. For the triggering of reaction, DMSO was added to the each well at the time of RLU determination. No test compounds were added in positive control but it contained DMSO, while no test compound and DMSO were added in negative control. Chemiluminescence (CL) was determined at room temperature by luminometer. The light emission results were measured in relative light unit (RLU). Protocol of above discussed protocol was followed by the method of Albesa et al (2002) with slight modifications.

[6] = test system: EMRSA-17; assay: Reversal of multi-drug resistance (MIC / FIC, Alamar blue)
Protocol: (§9) Fixed concentration of compounds I and II and increasing concentration of antibiotics (drugs) were made in 96-well plates. 5×10^5 multidrug resistant S. aureus cells were added in each well and incubated for 20-24 hours. No test compounds and antibiotics were present in control wells Inhibition and growth were noted both visually and by using the dye Alamar blue. FIC of Antibiotic a (FICa)=MIC of Antibiotic a in combination/MIC of Antibiotic a alone FIC of Compound b (FICb)=MIC of Compound b in combination/MIC of Compound b alone
(§10) The sum of Fractional Inhibitory Concentration (FICs) index of (FICa)+(FICb)=(FICs). Fractional inhibitory concentrations were calculated by the above cited formula. (The FIC values of compounds I and II are available (FIGS. 4A and 4B). Protocol of Chung et al. (2011), with slight modifications, was followed for above discussed reversal resistance assay.

[7] = test system: EMRSA-16; assay: as above; settings: for MIC of antibiotic in combination: antibiotic in combination of compounds I and II
Protocol: as §9, §10

[8] = test system: EMRSA-16 and -17; assay: Membrane potential and integrity, DiBAC4(3) flow cytometry; settings: 20 μg/mL, 20-24 h; DiBAC4(3) fluorescence FL1
Protocol: 20 μg/mL of compounds I and II were tested against 5×10^5 multidrug resistant S. aureus cells and incubated for 20-24 hours, while cells without compounds were taken as a control. Stock solution (1 mg/mL) for the membrane potential probe DiBAC4(3) was made in absolute ethanol and stored at −20° C. 1 mL of exponentially growing S. aureus were taken from broth cultures and centrifuged at 11,000 rpm for 2 mins Supernatant was discarded and cells pallets were dissolved in 4 mL of filtered phosphate-buffered saline (PBS). Final 10 μg/mL conc. of fluorogenic substrates DiBAC4 were adjusted in 4 mL volume. The stained cell suspension was incubated at 37° C. for 30 min. Before flow cytometric analysis, cells were washed in PBS buffer by centrifugation. The above mentioned protocol was adapted from the procedures of Jepras et al. (1997) with slight modifications. Assays were performed by using Becton Dickinson FACSCaliber™ flow cytometer (USA). A total of 50,000 cells were counted by using Cell Quest software (BD) for data acquisition and analysis. DiBAC4(3) was detected as green fluorescence in the channel FL1 (Veal et al., 2000).

[9] = test system: EMRSA-16 and -17; assay: Inhibition of MDR efflux pumps, EtBr accumulation flow cytometry; settings: combinations with antibiotics, 3 hrs; FL-2 channel
Protocol: Assay Protocol: Different combinations of compounds I and II with antibiotics, and antibiotic alone, were made and incubated with bacterial cells for 3 hrs. After incubation cells were stained with ethidium bromide. Both the control and treated cells were centrifuged for 3 mins at 13,000 rpm. The pallet was washed with PBS. Negative control was free from ethidium bromide (EtBr), while positive control contains (EtBr). By using FL2 channel, FACS analyses were carried out. Protocol of Kalle et al. (2009) was employed with some modifications.
Flow cytometry data acquisition: For data acquisition and analysis Cell Quest software (BD) were used. A total number of 50,000 cells were counted. EtBr fluorescence was detected through (FL-2 channel).

[10] = Staphylococcus aureus, 20 μg/mL, Alamar blue, 20-24 h
[11] = Staphylococcus aureus, EMRSA-17, substance alone, read-out: MIC

## COc1cccc(NC(=S)Nc2cccc(Cl)c2)c1 [II, N-(3-Chlorophenyl)-N-(3methoxyphenyl) thiourea]
[1]; [10]
  inhibition at 20 µg/mL: 14.8%
[2]; [10]
  inhibition at 20 µg/mL: 19.6%
[3]; 20 μg/mL
  activity in MABA (in words): active
[3]; [10]
  inhibition at 20 µg/mL: 82.6%
[4]; 20 μg/mL
  activity in MABA (in words): active
[4]; [10]
  inhibition at 20 µg/mL: 50.1%
[5]
  production of reactive oxygen species (O2-): generation of O2^− in MDR cells were detected
[6]; [11]
  MIC: 25 µg/mL
[7]; Staphylococcus aureus, substance alone
  MIC: 52 µg/mL
[8]
  effect on membrane potential and integrity: depolarization and the disruption of cytoplasmic membrane
[9]
  inhibition of efflux pump (EtBr accumulation): excellent capacity to inhibit the bacterial efflux pump mechanism

## NC(N)=O [Urea, Carbamide, carbonyl diamide, carbonyldiamine, Diaminomethanal]
[1]; 20 μg/mL, Alamar blue, 20-24 h
  % Inhibition 20 μg/mL MRSA 252: No Inhibition
[1]
  activity in MABA (in words): resistant
[2]; 20 μg/mL, Alamar blue, 20-24 h
  % Inhibition 20 μg/mL Clinical Isolates: No Inhibition
[2]
  activity in MABA (in words): resistant
[3]; 20 μg/mL
  activity in MABA (in words): resistant
[3]; Alamar blue, 20-24 h
  % Inhibition 20 μg/mL EMRSA-17: No Inhibition
[4]; 20 μg/mL
  activity in MABA (in words): resistant
[4]; Alamar blue, 20-24 h
  % Inhibition 20 μg/mL EMRSA-16: No Inhibition

## NCC[C@H](O)C(=O)N[C@@H]1C[C@H](N)[C@@H](O[C@H]2O[C@H](CN)[C@@H](O)[C@H](O)[C@H]2O)[C@H](O)[C@H]1O[C@H]1O[C@H](CO)[C@@H](O)[C@H](N)[C@H]1O [amikacin]
[6]; Staphylococcus aureus
  MIC: 256 µg/mL
[7]
  MIC of antibiotic in combination: 4 µg/mL

## O=C(N[C@H](CO)[C@H](O)c1ccc([N+](=O)[O-])cc1)C(Cl)Cl [chloramphenicol]
[7]
  MIC of antibiotic in combination: 16 µg/mL

## O=C(O)c1cn(C2CC2)c2cc(N3CCNCC3)c(F)cc2c1=O [ciprofloxacin]
[7]
  MIC of antibiotic in combination: 4 µg/mL

## CCC[C@@H]1C[C@@H](C(=O)N[C@@H]([C@H]2O[C@H](SC)[C@H](O)[C@@H](O)[C@H]2O)[C@H](C)Cl)N(C)C1 [clindamycin]
[6]; [11]
  MIC: 4100 µg/mL
[7]
  MIC of antibiotic in combination: 32 µg/mL

## Cc1onc(-c2ccccc2)c1C(=O)N[C@@H]1C(=O)N2[C@@H]1SC(C)(C)[C@@H]2C(=O)O [oxacillin]
[6]; [11]
  MIC: 2050 µg/mL
[7]
  MIC of antibiotic in combination: 16 µg/mL

## Cc1cc(NS(=O)(=O)c2ccc(N)cc2)no1 [sulfamethoxazole]
[6]; EMRSA-17, with both compounds I and II
  interaction of antibiotic with compounds (FIC): indifference effect
[6]; [11]
  MIC: 2080 µg/mL

## Thiocarbamide [Thiourea]
[1]; 20 μg/mL, Alamar blue, 20-24 h
  % Inhibition 20 μg/mL MRSA 252: No Inhibition
[1]
  activity in MABA (in words): resistant
[2]; 20 μg/mL, Alamar blue, 20-24 h
  % Inhibition 20 μg/mL Clinical Isolates: No Inhibition
[2]
  activity in MABA (in words): resistant
[3]; 20 μg/mL
  activity in MABA (in words): resistant
[3]; Alamar blue, 20-24 h
  % Inhibition 20 μg/mL EMRSA-17: No Inhibition
[4]; 20 μg/mL
  activity in MABA (in words): resistant
[4]; Alamar blue, 20-24 h
  % Inhibition 20 μg/mL EMRSA-16: No Inhibition

## gentamicin
[6]; EMRSA-17, substance alone
  MIC: 1024 µg/mL
[7]
  MIC of antibiotic in combination: 8 µg/mL

## neomycin
[6]; EMRSA-17, substance alone
  MIC: 512 µg/mL
[7]
  MIC of antibiotic in combination: 8 µg/mL

## penicillin
[6]; EMRSA-17, substance alone
  MIC: 1024 µg/mL
[7]
  MIC of antibiotic in combination: 8 µg/mL
